The subject of data set [1] is Mouse colon cancer CT26 cells. In words: Proliferation of CT26 cells, CCK8, MRTX1133 with or without IN10018 (Example 3). It is filed as cell-based. The conditions noted are these: 72 hours, combination group: 5 μM IN10018 added to each well. On the procedure:
Mouse colon cancer CT26 cells (Insitute of Biochemistry and Cell Biology) were cultured with RPMI-1640 (Shanghai Basalmedia, classification number: L210KJ, batch number: F210916)+10% FBS (Gibco, classification number: 10099-141c, batch number: 2158737cp) and passaged twice. When the cells were in good condition, the culture solution was placed in a 96-well plate with 3000 cells/well. After the cells were spread for 24 hours, a culture medium containing MRTX1133 (SuperLan Chemical Co., Ltd., classification number: P2621928-55-8, batch number: 131005) was added. 10 drug action concentrations were set, wherein the first concentration was 30 μM, which was serially diluted 5 times, and the last concentration was a control with a drug concentration of 0. Each drug concentration was set in triplicate. At the same time, another group of cells was established with the same drug concentration as the above method. The difference was that 5 μM IN10018 was added to each well. The drugs were mixed and the mixture was cultured in a 5% CO2 incubator at 37° C. for 72 hours.
After 72 hours of drug action, the cells were observed under a microscope, and 10 μl of CCK8 detection reagent (Cellorlab, classification number: CX001M, batch number: 2571100) was added to each well. […] Then the plate was read with a microplate reader OD450 ([…]).

A short description of data set [2]: Body weight / tolerability of KPL tumor-bearing mice (Example 12). It is filed as in vivo. The conditions noted are these: KPL tumor-bearing C57BL/6 mice. On the procedure:
All the procedures related to animal handling, care and the treatment in the study were conducted according to guidelines approved by the Institutional Animal Care and Use Committee (IACUC) following the guidance of the Association for Assessment and Accreditation of Laboratory Animal Care (AAALAC). At the time of routine monitoring, the animals were daily checked for any effects of tumor growth and treatments on normal behavior such as mobility, food and water consumption (by looking only), body weight gain/loss (body weights were measured every two days or twice weekly), eye/hair matting and any other abnormal effects as stated in the protocol. Death and observed clinical signs were recorded on the basis of the numbers of animals within each subset.
The body weight of KPL tumor-bearing mice was monitored regularly as an indirect index of toxicity.

The subject of data set [3] is Mouse colon cancer CT26 cells. In words: CT26 cells with IN10018 and Lurbinectedin: microscope and flow cytometry for CRT / Annexin V (Example 2). The conditions noted are these: CT26, 48 hours; IN10018 5 μM, Lurbinectedin 0.00142 μM. It is filed as cell-based. As for the experimental part:
Mouse colon cancer CT26 cells (Insitute of Biochemistry and Cell Biology) were cultured with RPMI-1640 (Shanghai Basalmedia, classification number: L210KJ, batch number: F210916)+10% FBS (Gibco, classification number: 10099-141c, batch number: 2158737cp) and passaged twice. When the cells were in good condition, the culture solution was placed in a 24-well plate. After the cells were spread for 24 hours, four groups were set up, wherein the first group was a control group, and the culture medium was added; the second group was IN10018 with a concentration of 5 μM; the third group was Lurbinectedin (DC chemicals, classification number: DC12502, batch number: DC1250203) with a concentration of 0.00142 μM; and the fourth group was IN10018 (5 μM) combined with Lurbinectedin (0.00142 μM). The drugs were mixed and the mixture was cultured in a 5% CO2 incubator at 37° C. for 48 hours.
After 48 hours of drug action, the cells were observed under a microscope and photographed, and the photos were kept. Then the cells were collected, subjected to flow analysis, and washed twice with flow buffer (PBS+2% FBS). 0.5 μl of AF647 anti-Calreticulin antibody (abcam, classification number: ab196159, batch number: CR33676773) was added to each well and fully mixed. […] The mixture was cultured at room temperature in the dark for 15 minutes, and then analyzed by flow cytometry.
A general note: Flow cytometry measures light scatter and fluorescence of single cells or particles in a stream.

Data set [4] has as its system mouse colon cancer CT26-KRAS G12C allograft tumor. In words: In vivo pharmacodynamic study, BALB/c mouse subcutaneous allograft tumor model of CT26-KRAS G12C cells (Example 8). On the procedure: Species: mice; Strain: BALB/c mice; Age and weight: 6-8 weeks old, weighing: 18-22 g; Gender: female; Quantity: 49 (excluding remaining mice after grouping); Supplier: LINGCHANG BIOTECH.
Mouse colon cancer CT26-KRAS G12C cells were cultured in monolayer in vitro. The culture conditions were RPMI1640 medium with 10% fetal bovine serum, 1% penicillin/streptomycin/amphotericin B, and 37° C. 5% CO2 incubator. Trypsin-EDTA was used twice a week for routine digestion and passage. When the cell saturation was 80%-90% and the number reached the requirements, the cells were collected, counted and inoculated.
0.1 mL (0.3×10^6 cells) of CT26-KRAS G12C cells were subcutaneously inoculated on the right back of each mouse, and grouping and drug administration began when the average tumor volume reached about 55 mm^3.
The diameter of tumor was measured three times a week with vernier caliper. The formula for calculating the tumor volume is: V=0.5×a×b^2, where a and b represent the long and short diameters of the tumor respectively.
The anti-tumor effect of the compound was evaluated by TGI (%) or relative tumor proliferation rate T/C(%). The relative tumor proliferation rate is T/C(%)=TRTV/CRTV×100% (TRTV: RTV in treatment group; CRTV: RTV in negative control group). According to the results of tumor measurement, the relative tumor volume (RTV) was calculated, and the calculation formula is RTV=Vt/V0, where V0 is the average tumor volume measured at the time of grouping and drug administration (i.e., D0), Vt is the average tumor volume measured at a certain time, and data on the same day were used for TRTV and CRTV.
TGI (%) reflects the tumor growth inhibition rate. TGI (%)=[1−(average tumor volume at the end of administration in a certain treatment group-average tumor volume at the beginning of administration in the treatment group)/(average tumor volume at the end of administration in solvent control group-average tumor volume at the beginning of administration in the solvent control group)]×100%.
Statistical analysis included the mean and standard error (SEM) of tumor volume at each time point in each group (see the specific data in Table 7). Based on the tumor volume data on the 19th day after administration, statistical analysis was performed to evaluate the differences between groups. T-test was used to analyze the comparison between two groups, and one-way ANOVA was used to analyze the comparison between three or more groups. If there was significant difference in F value, Games-Howell method was used for the test. If there was no significant difference in F value, Dunnet (2-sided) method was used for analysis. All data were analyzed by SPSS 17.0. P<0.05 was considered to have significant difference.

Setting [5] is: Day 19, D-1553 5 mg/kg PO QD, IN10018 25 mg/kg PO QD, INX0082 10 mg/kg IP BIW.

Values joined by “and” are separate entries in the source; they are usually repeats but may differ in a detail not shown here. Identical values can stand only once.

In the case of `C#Cc1c(F)ccc2cc(O)cc(-c3ncc4c(N5CC6CCC(C5)N6)nc(OC[C@@]56CCCN5C[C@H](F)C6)nc4c3F)c12` [MRTX1133], the IC50 (usually the concentration that gives 50% inhibition) in data set [1] turned out to be 280 nM. Moreover, the “tolerability in KPL model” value in data set [2] is listed as “well-tolerated”.

`COc1cc(C(=O)NC2CCN(C)CC2)c(F)cc1Nc1ncc(C(F)(F)F)c(Oc2cccc3c2C(=O)N(C)C3)n1` [IN10018]: in data set [3], the “cell state under a microscope” value is “good”. Further, the “Tumor volume (Day 0)” value in data set [4] (Day 0, at grouping, Average ± SEM, n = 7) was determined as 55 ± 3 mm^3. Moreover, in data set [4] (setting [5]), the “T/C (%) (Day 19)” value is 74.7% and the “TGI (%) (Day 19)” value came to 23.4%. Also, the “Tumor volume (Day 19)” value in data set [4] (Day 19, D-1553 5 mg/kg PO QD, IN10018 25 mg/kg PO QD, INX0082 10 mg/kg IP BIW, Average ± SEM, n = 7) was 1352 mm^3 and 1352 ± 284 mm^3. In data set [4] (Day 19, D-1553 5 mg/kg, IN10018 25 mg/kg, INX0082 10 mg/kg), the “anti-tumor effect compared with the solvent control group” value is recorded as “no anti-tumor effect”.

Values taken from patent publication US20240285627A1, “DRUG COMBINATION OF FAK INHIBITOR AND IMMUNOGENIC CELL DEATH INDUCER AND USE THEREOF” (INXMED (NANJING) CO., LTD., priority 2022, published 2024).
